Assay results reported in article PMC11211441, “Distributable, metabolic PET reporting of tuberculosis” (Nature Communications, 2024).
Values joined by “and” are separate entries in the source; they are usually repeats but may differ in a detail not shown here. Equal entries are not always repeated.

Tests used:
[1] = tested on: Mtb-infected marmoset lung lesions; assay: PET/CT imaging of tracer uptake in marmoset TB model; type: in vivo; conditions: for SUV/CMR / TGA/CMR: FDG, individual lesions
Experimental: Rabbits and marmosets at NIAID were anaesthetized and maintained during imaging[49],[67]. Syringes of FDG or FDT were measured in a dose calibrator immediately before and after injection, targeting = injected doses of 2 mCi/kg. During uptake and distribution of the probes, a CT scan from the base of the skull spanning the lungs and the upper abdominal cavity was acquired as described for each species on a helical eight-slice Neurological Ceretom CT scanner (NeuroLogicia, Danvers, MA) operated as part of a hybrid pre-clinical PET/CT system utilizing a common bed. The animal bed was then retracted into the microPET gantry (MicroPET Focus 220, Siemens Preclinical Solutions, Knoxville, TN) and sixty minutesβ ± 5 min post FDG injection, a series of 2 or 3, 10 min emission scans with 75 mm thick windows with a 25 mm overlap were acquired caudal to cranial. […] For the blocking studies, injections of 150 µg of [^19F]FDT synthesized as described above were administered 60 min and 5 min prior to the [^18F]-FDT tracer and the scans were acquired as before. Two animals were used in the blocking studies with one animal receiving the blocking agent while the other was administered saline only prior to the FDT tracer. Two days later, the administrations were reversed so that the second animal received the blocking agent. The emission data for all scans were processed and corrected. Cynomolgus macaques (n = 3) at the University of Pittsburgh were imaged using a Siemens microPET Focus 220 PET scanner and a Neurological Ceretom CT scanner. Paired FDG and FDT scans were collected on only 2 macaques pre-necropsy. Scans were viewed using OsiriX (Pixmeo, Geneva, Switzerland) to identify and analyze individual granulomas as described previously.
Dense lesion centers were subsequently identified for inclusion in the lung region manually and the program calculated the FDG signal parameters. In addition, each lesion within the lung was marked with a 3-D region of interest (ROI). In uninfected marmosets administered FDT, ROIs with a similar-volume (dia. 5 to 7 mm) were distributed in the lung as mock lesions according to the method of Ordonez et al.[70] and the SUV statistics for the ROIs were captured into excel sheets for analysis.

[2] = 1.5 hr voiding window; cited from earlier work
[3] = In vivo metabolism of 18F-labeled trehalose analogs in rabbits
Experimental: Finally, putative degradation was also probed directly in vivo using both Mtb-infected and naïve rabbits.
Blood (100 µL), urine (100–300 µL) and lesion samples were collected from animals and diluted 2:1 v/v with acetonitrile to sterilize them. These samples were then vortexed, centrifuged and the supernatant analyzed by either HPLC or TLC. The TLC silica gel plates used to assay these metabolism samples and lesion extracts were 150 Å Silica Gel HL 250 µm 10 ×20 cm channeled plates with a pre-adsorbent zone purchased from Analtech/iChromatography (Newark, DE). TLC plates were visualized via exposure to a phosphor screen for 16 h prior to imaging using a phosphor screen and Typhoon FLA7000 (GE Healthcare, Pittsburgh PA) or using a BioScan AR-2000 reader.

[4] = tested on: mammalian (porcine) trehalase; assay: Trehalase degradation assay; type: in vitro ADME; conditions: 0.3 units/mL trehalase, 10 mM substrate; for degradation by trehalase (Figure S5, released glucose): pH 5.7, 37 °C, 60 minutes
Experimental: The metabolic stabilities of the remaining three analogs, [^18F]FDT, 4-epi-[^18F]FDT and 6-[^18F]FDT were tested. Although, human trehalose-degrading trehalase activity is low and restricted primarily to the brush-border of the kidney where it is thought to be GPI-anchored[28],[32], it can be elevated in some diseases, therefore we also tested degradation of the analogs in vitro using high concentrations of mammalian (porcine) trehalase (0.3 units/mL, 10 mM substrate, Fig. S5). […]
Figure S5. Trehalase Assays.
Substrates were prepared to a final concentration of 10 mM in 0.05 M citric acid, pH 5.7 including trehalase stock solution (0.3 units/mL). The reaction mixture was incubated at 37 °C for 60 minutes, and then quenched with an equal volume of 0.1 M Tris, pH 7.5. Released glucose was measured with glucose assay kit (see Methods).

[5] = [19F]FDT clearance and in vivo stability in marmosets (plasma LC-MS, 19F NMR); parameters: species or system common marmosets; conditions: common marmoset, plasma, iv, 20 mg, marmosets M1-M3 (duplicate measurements), 20 mg IV
Experimental: In order to determine [^19F]FDT metabolism in vivo, we assessed concentration vs time in two mammalian species: common marmosets and C57BL/6 mice. For marmosets weighing between 290.3–340.3 g, 20 mg of sterile-filtered FDT in PBS was injected IV (n = 3) and ~200 μL blood samples were taken from the femoral vein at 0 min, 5 min, 30 min, 60 min, 90 min and 180 min post injection. Samples were spun (4000 rcf for 10 mins at room temp) to separate red cell mass from plasma. Plasma portion was separated and stored at −80 °C for further analysis. Similarly, mice weighing from 18.7–20.5 g were injected (n = 5) with 5 mg of filter-sterilized FDT solution dissolved in PBS solution, pH 7.4. Mandibular blood samples were taken at 2 min, 15 min, 30 min and 45 min post injection. For the last sample in each mouse, the animal was bled out to get maximum sample for NMR analysis. Final urine samples were collected in 3 out of 5 mice through free catch. Blood samples were centrifuged (6500 rcf for 4 mins at room temp) to separate red cell mass from plasma, and plasma was separated and stored at −80 °C prior to analyzes.
Plasma samples from −80 °C were thawed on ice and mixed with 80% acetonitrile to precipitate plasma proteins and other biomolecules. Samples were centrifuged at 10,000 g, 4 °C for 10 min.
Figure S37. [19F]FDT Clearance and In Vivo Stability in Non-human Primates […]
A, B) 20 mg [19F]FDT was injected into marmosets (A, n=3 biological replicates, each measured in duplicate) and 5 mg FDT injected into mice (B, n=5 biological replicates, each measured in triplicate). […]
marmosets (A) and mice (B).
[19F]FDG was detected, consistent with the only low levels of metabolism seen with [18F]FDT in rabbits (see Figure S3G). C-F) We further analyzed the potential degradation of FDT into FDG by 19F NMR spectroscopy in marmoset plasma (C) sample from 5 min time point, mouse plasma (D) sample from 30 min time point and mouse urine samples from 30 min (E) and 45 min (F) time points, respectively. In all these samples only [19F]FDT was observed (d -201.2). The data points are average values from three replicates with error bars ± SD.
(1 picture or pasted object on this page, not shown here)

[6] = Human microsomal stability assay; conditions: human, microsomes, pH 7.4, %Remaining, human liver microsomes
Experimental: Microsomal stability assay was carried out as described previously. In brief, 10 x reduced nicotinamide adenine dinucleotide phosphate (NADPH)-regenerating system was freshly prepared by dissolving 37.2 mg glucose-6-phosphate (Sigma) in 1 mL of 100 mM potassium phosphate buffer, 39.8 mg nicotinamide adenine dinucleotide phosphate (NADP, Sigma) in 1 mL of potassium phosphate buffer, 11.5 U glucose-6-phosphate dehydrogenase (Thermo) in 1 mL of potassium phosphate buffer and 26.8 mg MgCl2.6H2O (Sigma) in 1 mL of distilled water. All these solutions were combined and kept on ice. […] After 5 min, 18 µL of NADPH-regenerating system was added to initiate reaction. Immediately after adding the NADPH regenerating system, 50 µL, 0 min time point sample was taken and quenched with equal volume of ice-cold methanol. Similarly further samples were taken at 10 min, 30 min, 60 min, 90 min and 120 min. Samples were centrifuged at 10,000 g at 4 °C for 10 min. […] After incubating the reaction mix at 37 °C for 5 min, 36 µL of NADPH regenerating system was added to initiate the reaction. 50 µL samples were taken at 0 min, 2.5 min, 5 min, 10 min, 20 min, 40 min and 80 min and reactions were quenched by adding equal amount of ice-cold acetonitrile and kept on ice.

[7] = substrate: O=C[C@H](O)[C@@H](O)[C@H](O)[C@H](O)COP(=O)(O)O; assay: OtsA^Sf enzyme kinetic assay (NADH-linked continuous); type: biochemical, E. coli; conditions: other: enzyme expressed from Spodoptera frugiperda, coupled-enzyme spectrophotometric assay, 25 °C, pH 7.5
Experimental: OtsA kinetic parameters were also determined by monitoring the formation of T6P by NADH-linked continuous assay.
60 °C with a nitrogen flush.
OtsA Enzyme kinetic assay
spectrophotometric assay.

2-[^18F]fluoro-2-deoxy-D-glucose [[^18F]FDG]
SUV/CMR ([1]; 4 wks HRZE): 12.2544 and 1.845 and 5.193 and 8.368 and 5.63 and 1.286 and 5.952 and 5.153 and 7.3616
TGA/CMR ([1]; 4 wks HRZE): 11.4228 and 0.1147 and 1.936 and 8.84 and 2.799 and 0.1598 and 9.617 and 2.242 and 13.7241
SUV/CMR ([1]; Pre-Rx): 5.878 and 2.269 and 2.719 and 4.3218 and 3.722 and 2.294 and 3.185 and 2.868 and 3.6021
TGA/CMR ([1]; Pre-Rx): 7.811 and 0.2621 and 2.6706 and 8.989 and 4.301 and 0.5302 and 6.073 and 2.651 and 5.8274
uptake response to treatment (SUVs and TLG) ([1]; marmosets, 4 weeks HRZE): mixed, refractory and inconsistent uptake
dose, adrenals [2]: 0.013 mSv/MBq
dose, kidneys [2]: 0.020 mSv/MBq
dose, urinary bladder wall [2]: 0.086 mSv/MBq

OC[C@H]1O[C@H](O[C@H]2O[C@H](CO)[C@H]([18F])[C@H](O)[C@H]2O)[C@H](O)[C@@H](O)[C@@H]1O [4-epi-[^18F]FDT]
epi-4-Ftre (%) ([3]; Control Rabbits, 0 min): 100%
epi-4-Ftre (%) ([3]; Control Rabbits, 15 min): 87%
epi-4-Ftre (%) ([3]; Control Rabbits, 30 min): 78%
epi-4-Ftre (%) ([3]; Control Rabbits, 45 min): 87%
epi-4-Ftre (%) ([3]; Control Rabbits, 60 min): 73%
epi-4-Ftre (%) ([3]; Control Rabbits, 90 min): 82%
epi-4-Ftre (%) ([3]; Control Rabbits, 120 min): 76%
epi-4-Ftre (%) ([3]; Control Rabbits, 180 min): 71%
epi-4-Ftre (%) ([3]; Infected Rabbits, 0 min): 100%
epi-4-Ftre (%) ([3]; Infected Rabbits, 15 min): 89%
epi-4-Ftre (%) ([3]; Infected Rabbits, 30 min): 87%
epi-4-Ftre (%) ([3]; Infected Rabbits, 45 min): 84%
epi-4-Ftre (%) ([3]; Infected Rabbits, 60 min): 81%
epi-4-Ftre (%) ([3]; Infected Rabbits, 90 min): 76%
epi-4-Ftre (%) ([3]; Infected Rabbits, 120 min): 91%
epi-4-Ftre (%) ([3]; Infected Rabbits, 180 min): 90%
metabolism ([3]; rabbits, after 3 h): 30%

OC[C@H]1O[C@H](O[C@H]2O[C@H](CO)[C@@H](F)[C@H](O)[C@H]2O)[C@H](O)[C@@H](O)[C@@H]1O [4-epi-[^19F]FDT]
degradation by trehalase [4]: little or no degradation
degradation by trehalase (Figure S5, released glucose) [4]: 0

OC[C@H]1O[C@H](O[C@H]2O[C@H](CF)[C@@H](O)[C@H](O)[C@H]2O)[C@H](O)[C@@H](O)[C@@H]1O [6-[^19F]FDT]
degradation by trehalase [4]: 14%
degradation by trehalase (Figure S5, released glucose) [4]: 14

OC[C@H]1O[C@H](O[C@H]2O[C@H](CO)[C@@H](O)[C@H](O)[C@H]2F)[C@H](O)[C@@H](O)[C@@H]1O [FDT]
concentration at 5 min ([5]; 5 min post injection): 551 µM
concentration at 30 min ([5]; 30 min post injection): 250 µM
concentration at 61 min ([5]; 61 min post injection): 173 µM
concentration at 93 min ([5]; 93 min post injection): 97.1 µM
remaining at 0 h, 3 µM ([6]; 0 min): 100%
remaining at 5 min, 3 µM ([6]; 5 min): 74.5%
remaining at 10 min, 3 µM ([6]; 10 min): 58.5%
remaining at 20 min, 3 µM ([6]; 20 min): 55.3%
remaining at 40 min, 3 µM ([6]; 40 min): 56.6%
remaining at 2.5 min, 3 µM ([6]; […]): 80.1%

OC[C@H]1O[C@H](O[C@H]2O[C@H](CO)[C@@H](O)[C@H](O)[C@H]2O)[C@H](O)[C@@H](O)[C@@H]1O [trehalose, reference compound]
degradation by trehalase [4]: complete degradation
degradation by trehalase (Figure S5, released glucose) [4]: 100

B1: OtsA^Sf (Escherichia coli K-12) (protein)
chain: MSRLVVVSNRIAPPDEHAASAGGLAVGILGALKAAGGLWFGWSGETGNEDQPLKKVKKGNITWASFNLSEQDLDEYYNQFSNAVLWPAFHYRLDLVQFQRPAWDGYLRVNALLADKLLPLLQDDDIIWIHDYHLLPFAHELRKRGVNNRIGFFLHIPFPTPEIFNALPTYDTLLEQLCDYDLLGFQTENDRLAFLDCLSNLTRVTTRSAKSHTAWGKAFRTEVYPIGIEPKEIAKQAAGPLPPKLAQLKAELKNVQNIFSVERLDYSKGLPERFLAYEALLEKYPQHHGKIRYTQIAPTSRGDVQAYQDIRHQLENEAGRINGKYGQLGWTPLYYLNQHFDRKLLMKIFRYSDVGLVTPLRDGMNLVAKEYVAAQDPANPGVLVLSQFAGAANELTSALIVNPYDRDEVAAALDRALTMSLAERISRHAEMLDVIVKNDINHWQECFISDLKQIVPRSAESQQRDKVATFPKLA
notes: His tag (type from Ni-NTA purification and anti-His blot) (C); made in house; host or cells: Spodoptera frugiperda Sf9 cells (Bac-to-Bac baculovirus)
Km [7]: 4.9 ± 0.5 mM
kcat [7]: 57.5 ± 2.3 s⁻¹
kcat/Km [7]: 11900 M⁻¹ s⁻¹
